Test results: ChEMBL document CHEMBL1125093, “Structure-activity relationships of 8-cycloalkyl-1,3-dipropylxanthines as antagonists of adenosine receptors” (J Med Chem, 1990)

What was measured:
[1] = target: Adenosine receptor A2 (Homo sapiens); assay: Antagonistic activity against adenosine A2 receptor in human platelets
[2] = target: Adenosine receptor A1 (Rattus norvegicus) (UniProt P25099); assay: Antagonist activity against adenosine A1 receptor in rat adipocytes

Molecule `CCCn1c(=O)c2nc(C3CCC(NC(C)=O)CC3)[nH]c2n(CCC)c1=O` (stereo in doubt; 9) has a Ki [1] greater than 10000 nM and a Ki [2] of 12 nM.

With `CCCn1c(=O)c2nc(C3CCCC3C(=O)N(C)CCN(C)C)[nH]c2n(CCC)c1=O` (stereo in doubt; 19) the Ki [1] was greater than 3000 nM and the Ki [2] was greater than 3000 nM.

With `CCCn1c(=O)c2nc(NC3CCCCC3)[nH]c2n(CCC)c1=O` the Ki [1] was 680 nM and the Ki [2] was 14 nM.

`CCCn1c(=O)c2nc(C3CC3C)[nH]c2n(CCC)c1=O` (centres undefined) gave a Ki [1] greater than 10000 nM and a Ki [2] of 11 nM.

`CCCn1c(=O)c2nc(C3CCC(C(=O)O)CC3)[nH]c2n(CCC)c1=O` (stereo in doubt; 2) was tested, and the Ki [1] was 1500 nM and the Ki [2] was 59 nM.

For `CCCn1c(=O)c2nc(C3CCC(NC(C)=O)CC3)[nH]c2n(CCC)c1=O` (stereo in doubt; 10), the Ki [1] was 1000 nM and the Ki [2] was 70 nM.

For `CCCn1c(=O)c2nc(C3CCCC(N)C3)[nH]c2n(CCC)c1=O` (centres undefined), the Ki [1] was greater than 10000 nM and the Ki [2] was 50 nM.

Molecule `CCCn1c(=O)c2nc([C@H]3CC[C@H](CNC(C)=O)CC3)[nH]c2n(CCC)c1=O` has a Ki [2] of 8 nM.

With `CCCn1c(=O)c2nc(NC3CCCC3)[nH]c2n(CCC)c1=O` the Ki [1] was 130 nM and the Ki [2] was 8 nM.

For `CCCn1c(=O)c2nc(C3CCCC(NC(C)=O)C3)[nH]c2n(CCC)c1=O` (centres undefined), the Ki [1] was 1000 nM and the Ki [2] was 41 nM.

`CCCn1c(=O)c2nc(C3CCCC3C(=O)O)[nH]c2n(CCC)c1=O` (trans isomer) gave a Ki [1] greater than 10000 nM and a Ki [2] of 100 nM.

Molecule `CCCn1c(=O)c2nc(CC3CCCC3)[nH]c2n(CCC)c1=O` has a Ki [1] greater than 10000 nM and a Ki [2] of 69 nM.

`CCCn1c(=O)c2nc(C3CCCC3C(=O)N(C)CCN(C)C)[nH]c2n(CCC)c1=O` (stereo in doubt; 20) was tested, and the Ki [1] was greater than 10000 nM and the Ki [2] was 53 nM.

In the case of `CCCn1c(=O)c2nc(NC3CCC3)[nH]c2n(CCC)c1=O`, the Ki [1] is reported as 120 nM and the Ki [2] is reported as 2.6 nM.

For `CCCn1c(=O)c2nc(C3CCC(C(=O)OC)CC3)[nH]c2n(CCC)c1=O` (centres undefined), the Ki [1] was 560 nM and the Ki [2] was 130 nM.

Molecule `CCCNC(=O)C1CCC(c2nc3c([nH]2)c(=O)n(CCC)c(=O)n3CCC)CC1` (centres undefined) has a Ki [1] greater than 3000 nM and a Ki [2] of 85 nM.

`CCCn1c(=O)c2nc(C3CCC3C(=O)O)[nH]c2n(CCC)c1=O` (centres undefined) showed a Ki [1] greater than 10000 nM and a Ki [2] of 660 nM.

In the case of `CCCn1c(=O)c2[nH]c(C34CC5CC(CC(C5)C3)C4)nc2n(CCC)c1=O`, the Ki [2] is reported as 82 nM.

In the case of `CCCn1c(=O)c2nc(C3CCCCC3C(=O)O)[nH]c2n(CCC)c1=O` (stereo in doubt; 3), the Ki [1] is reported as greater than 10000 nM and the Ki [2] is reported as greater than 10000 nM.

With `CCCn1c(=O)c2nc(N3CCCCC3)[nH]c2n(CCC)c1=O` the Ki [1] was 490 nM and the Ki [2] was 22 nM.

In the case of `CCCn1c(=O)c2nc(C3CCC(C(=O)N(C)CCN(C)C)CC3)[nH]c2n(CCC)c1=O` (stereo in doubt; 15), the Ki [1] is reported as 450 nM and the Ki [2] is reported as 85 nM.

`CCCn1c(=O)c2nc(C3CCC(C(=O)O)CC3)[nH]c2n(CCC)c1=O` (stereo in doubt; 1) gave a Ki [1] greater than 10000 nM and a Ki [2] of 430 nM.

In the case of `CCCn1c(=O)c2nc(C3CCC(C(=O)N(C)CCN(C)C)CC3)[nH]c2n(CCC)c1=O` (stereo in doubt; 14), the Ki [1] is reported as 260 nM and the Ki [2] is reported as 17 nM.

In the case of `CCCn1c(=O)c2[nH]c(C3CCC(N)CC3)nc2n(CCC)c1=O` (stereo in doubt; 6), the Ki [2] is reported as 90 nM.

`CCCn1c(=O)c2nc(C3CCCC3C(=O)O)[nH]c2n(CCC)c1=O` (stereo in doubt; 17) was tested, and the Ki [1] was greater than 10000 nM and the Ki [2] was 140 nM.

In the case of `CCCn1c(=O)c2nc(C3CCC(CN)CC3)[nH]c2n(CCC)c1=O` (centres undefined), the Ki [2] is reported as 20 nM.

For `CCCn1c(=O)c2[nH]c(C3CCC(N)CC3)nc2n(CCC)c1=O` (stereo in doubt; 7), the Ki [2] was 160 nM.

For `CCCn1c(=O)c2nc(C3CCCCC3C(=O)O)[nH]c2n(CCC)c1=O` (stereo in doubt; 4), the Ki [1] was greater than 3000 nM and the Ki [2] was greater than 3000 nM.

In the case of `CCCn1c(=O)c2nc(C3=C(C(=O)O)CCC3)[nH]c2n(CCC)c1=O`, the Ki [1] is reported as greater than 10000 nM and the Ki [2] is reported as greater than 10000 nM.

In the case of `CCCn1c(=O)c2nc(N3CCCC3)[nH]c2n(CCC)c1=O`, the Ki [2] is reported as 76 nM.
